Assays:
CCRF-CEM = test: panel of 60 human tumor cell lines, growth inhibition (Leukemia)
K-562 = test: as above; settings: K-562
SR = test: as above
MDA-MB-435 = test: panel of 60 human tumor cell lines, growth inhibition (Melanoma); settings: MDA-MB-435
UACC-257 = test: as above; settings: UACC-257
UACC-62 = test: as above; settings: UACC-62
SF-268 = test: panel of 60 human tumor cell lines, growth inhibition (CNS Cancer); settings: SF-268
SF-539 = test: as above; settings: SF-539
COLO 205 = test: panel of 60 human tumor cell lines, growth inhibition (Colon Cancer); settings: COLO 205
HCT-15 = test: as above; settings: HCT-15
KM12 = test: as above; settings: KM12
A498 = test: panel of 60 human tumor cell lines, growth inhibition (Renal Cancer); settings: A498
RXF 393 = test: as above; settings: RXF 393
MDA-MB-468 = test: panel of 60 human tumor cell lines, growth inhibition (Breast Cancer); settings: MDA-MB-468
OVCAR-5 = test: panel of 60 human tumor cell lines, growth inhibition (Ovarian Cancer); settings: OVCAR-5
OVCAR-8 = test: as above; settings: OVCAR-8
HOP-92 = test: panel of 60 human tumor cell lines, growth inhibition (Non-Small Cell Lung Cancer); settings: HOP-92
NCI-H322M = test: as above

With C=C1C(=O)O[C@H]2[C@H]1CC/C(COC(=O)NCCN1CCCCC1)=C\CC[C@@]1(C)O[C@@H]21 [JVM 2-13] the GI50 (CCRF-CEM) was 3.03 µM, the TGI (CCRF-CEM) was 12.1 µM and the “Percent Growth” value (CCRF-CEM; Log10 Concentration −4.0) was −41%. The “Percent Growth” value (CCRF-CEM; Log10 Concentration −5.0) was 4%, the “Percent Growth” value (CCRF-CEM; Log10 Concentration −6.0) was 93% and the “Percent Growth” value (CCRF-CEM; Log10 Concentration −7.0) was 109%. For the same compound, the “Percent Growth” value (CCRF-CEM; Log10 Concentration −8.0) was 104%, the GI50 (K-562) was 2.79 µM and the TGI (K-562) was 9.11 µM. For the same compound, the “Percent Growth” value (K-562; Log10 Concentration −4.0) was −42%, the “Percent Growth” value (K-562; Log10 Concentration −5.0) was −4% and the “Percent Growth” value (K-562; Log10 Concentration −6.0) was 93%. For the same compound, the “Percent Growth” value (K-562; Log10 Concentration −7.0) was 95%, the “Percent Growth” value (K-562; Log10 Concentration −8.0) was 100% and the TGI (SR) was 15.4 µM. The “Percent Growth” value (SR; Log10 Concentration −4.0) was −47%, the “Percent Growth” value (SR; Log10 Concentration −5.0) was 11% and the “Percent Growth” value (SR; Log10 Concentration −6.0) was 75%. For the same compound, the “Percent Growth” value (SR; Log10 Concentration −7.0) was 95%, the “Percent Growth” value (SR; Log10 Concentration −8.0) was 118% and the GI50 (MDA-MB-435) was 4.13 µM. The TGI (MDA-MB-435) was 16.7 µM, the “Percent Growth” value (MDA-MB-435; Log10 Concentration −4.0) was −93% and the “Percent Growth” value (MDA-MB-435; Log10 Concentration −5.0) was 27%. The “Percent Growth” value (MDA-MB-435; Log10 Concentration −6.0) was 87%, the “Percent Growth” value (MDA-MB-435; Log10 Concentration −7.0) was 97% and the “Percent Growth” value (MDA-MB-435; Log10 Concentration −8.0) was 95%. The GI50 (UACC-257) was 4.99 µM, the TGI (UACC-257) was 19.2 µM and the “Percent Growth” value (UACC-257; Log10 Concentration −4.0) was −86%. For the same compound, the “Percent Growth” value (UACC-257; Log10 Concentration −5.0) was 34%, the “Percent Growth” value (UACC-257; Log10 Concentration −6.0) was 86% and the “Percent Growth” value (UACC-257; Log10 Concentration −7.0) was 92%. The “Percent Growth” value (UACC-257; Log10 Concentration −8.0) was 94%, the GI50 (UACC-62) was 4.86 µM and the TGI (UACC-62) was 18.9 µM. For the same compound, the “Percent Growth” value (UACC-62; Log10 Concentration −4.0) was −85%, the “Percent Growth” value (UACC-62; Log10 Concentration −5.0) was 33% and the “Percent Growth” value (UACC-62; Log10 Concentration −6.0) was 88%. For the same compound, the “Percent Growth” value (UACC-62; Log10 Concentration −7.0) was 95%, the “Percent Growth” value (UACC-62; Log10 Concentration −8.0) was 95% and the GI50 (SF-268) was 9.67 µM. For the same compound, the TGI (SF-268) was 24.4 µM, the “Percent Growth” value (SF-268; Log10 Concentration −4.0) was −78% and the “Percent Growth” value (SF-268; Log10 Concentration −5.0) was 49%. For the same compound, the “Percent Growth” value (SF-268; Log10 Concentration −6.0) was 96%, the “Percent Growth” value (SF-268; Log10 Concentration −7.0) was 104% and the “Percent Growth” value (SF-268; Log10 Concentration −8.0) was 97%. For the same compound, the GI50 (SF-539) was 3.23 µM, the TGI (SF-539) was 13.1 µM and the “Percent Growth” value (SF-539; Log10 Concentration −4.0) was −78%. For the same compound, the “Percent Growth” value (SF-539; Log10 Concentration −5.0) was 10%, the “Percent Growth” value (SF-539; Log10 Concentration −6.0) was 91% and the “Percent Growth” value (SF-539; Log10 Concentration −7.0) was 91%. For the same compound, the “Percent Growth” value (SF-539; Log10 Concentration −8.0) was 92%, the GI50 (COLO 205) was 1.79 µM and the TGI (COLO 205) was 1.73 µM. For the same compound, the “Percent Growth” value (COLO 205; Log10 Concentration −4.0) was −75%, the “Percent Growth” value (COLO 205; Log10 Concentration −5.0) was −67% and the “Percent Growth” value (COLO 205; Log10 Concentration −6.0) was 90%. The “Percent Growth” value (COLO 205; Log10 Concentration −7.0) was 101%, the “Percent Growth” value (COLO 205; Log10 Concentration −8.0) was 92% and the GI50 (HCT-15) was 3.08 µM. For the same compound, the TGI (HCT-15) was 13.1 µM, the “Percent Growth” value (HCT-15; Log10 Concentration −4.0) was −75% and the “Percent Growth” value (HCT-15; Log10 Concentration −5.0) was 10%. The “Percent Growth” value (HCT-15; Log10 Concentration −6.0) was 88%, the “Percent Growth” value (HCT-15; Log10 Concentration −7.0) was 95% and the “Percent Growth” value (HCT-15; Log10 Concentration −8.0) was 91%. For the same compound, the GI50 (KM12) was 14.4 µM, the TGI (KM12) was 29.8 µM and the “Percent Growth” value (KM12; Log10 Concentration −4.0) was −83%. For the same compound, the “Percent Growth” value (KM12; Log10 Concentration −5.0) was 75%, the “Percent Growth” value (KM12; Log10 Concentration −6.0) was 101% and the “Percent Growth” value (KM12; Log10 Concentration −7.0) was 106%. The “Percent Growth” value (KM12; Log10 Concentration −8.0) was 106%, the GI50 (A498) was 11.8 µM and the TGI (A498) was 25 µM. For the same compound, the “Percent Growth” value (A498; Log10 Concentration −4.0) was −92%, the “Percent Growth” value (A498; Log10 Concentration −5.0) was 61% and the “Percent Growth” value (A498; Log10 Concentration −6.0) was 71%. The “Percent Growth” value (A498; Log10 Concentration −7.0) was 65%, the “Percent Growth” value (A498; Log10 Concentration −8.0) was 73% and the GI50 (RXF 393) was 2.11 µM. For the same compound, the TGI (RXF 393) was 8.93 µM, the “Percent Growth” value (RXF 393; Log10 Concentration −4.0) was −84% and the “Percent Growth” value (RXF 393; Log10 Concentration −5.0) was −4%. The “Percent Growth” value (RXF 393; Log10 Concentration −6.0) was 76%, the “Percent Growth” value (RXF 393; Log10 Concentration −7.0) was 86% and the “Percent Growth” value (RXF 393; Log10 Concentration −8.0) was 98%. The GI50 (MDA-MB-468) was 1.41 µM, the TGI (MDA-MB-468) was 4.47 µM and the “Percent Growth” value (MDA-MB-468; Log10 Concentration −4.0) was −68%. The “Percent Growth” value (MDA-MB-468; Log10 Concentration −5.0) was −35%, the “Percent Growth” value (MDA-MB-468; Log10 Concentration −6.0) was 65% and the “Percent Growth” value (MDA-MB-468; Log10 Concentration −7.0) was 95%. The “Percent Growth” value (MDA-MB-468; Log10 Concentration −8.0) was 99%, the GI50 (OVCAR-5) was 10.6 µM and the TGI (OVCAR-5) was 24.2 µM. For the same compound, the “Percent Growth” value (OVCAR-5; Log10 Concentration −4.0) was −86%, the “Percent Growth” value (OVCAR-5; Log10 Concentration −5.0) was 53% and the “Percent Growth” value (OVCAR-5; Log10 Concentration −6.0) was 82%. For the same compound, the “Percent Growth” value (OVCAR-5; Log10 Concentration −7.0) was 87%, the “Percent Growth” value (OVCAR-5; Log10 Concentration −8.0) was 84% and the GI50 (OVCAR-8) was 5.07 µM. For the same compound, the TGI (OVCAR-8) was 20 µM, the “Percent Growth” value (OVCAR-8; Log10 Concentration −4.0) was −75% and the “Percent Growth” value (OVCAR-8; Log10 Concentration −5.0) was 32%. For the same compound, the “Percent Growth” value (OVCAR-8; Log10 Concentration −6.0) was 93%, the “Percent Growth” value (OVCAR-8; Log10 Concentration −7.0) was 97% and the “Percent Growth” value (OVCAR-8; Log10 Concentration −8.0) was 100%. The GI50 (HOP-92) was 1.58 µM, the TGI (HOP-92) was 11.2 µM and the “Percent Growth” value (HOP-92; Log10 Concentration −4.0) was −83%. The “Percent Growth” value (HOP-92; Log10 Concentration −5.0) was 4%, the “Percent Growth” value (HOP-92; Log10 Concentration −6.0) was 61% and the “Percent Growth” value (HOP-92; Log10 Concentration −7.0) was 76%. The “Percent Growth” value (HOP-92; Log10 Concentration −8.0) was 82%, the GI50 (NCI-H322M) was 17.4 µM and the “Percent Growth” value (NCI-H322M; Log10 Concentration −4.0) was −89%. The “Percent Growth” value (NCI-H322M; Log10 Concentration −5.0) was 94%, the “Percent Growth” value (NCI-H322M; Log10 Concentration −6.0) was 106% and the “Percent Growth” value (NCI-H322M; Log10 Concentration −7.0) was 112%. The “Percent Growth” value (NCI-H322M; Log10 Concentration −8.0) was 105%.

Source: patent US9469650B2, “Melampomagnolide B derivatives” (BOARD OF TRUSTEES OF THE UNIVERSITY OF ARKANSAS, priority 2013, dated 2016)
